# Laboratory results: patent publication US20260168983A1, “YaxAB NANOPORE, NANOPORE SYSTEM COMPRISING SAME AND APPLICATIONS THEREOF” (KOREA RESEARCH INSTITUTE OF BIOSCIENCE AND BIOTECHNOLOGY, priority 2022, published 2026)
# Entries after “also recorded” stand apart in the source; their conditions may differ.
# Experiments:
# [1] = molecular target: BRD4-BD1 protein (Homo sapiens, UniProt O60885); details: 1 M LiCl, pH 7.5
# [2] = molecular target: Bcl-xL protein (Homo sapiens, UniProt Q07817)
# Bcl-xL protein, sequence (Q07817 with tags, fused parts or gaps DEL45-84): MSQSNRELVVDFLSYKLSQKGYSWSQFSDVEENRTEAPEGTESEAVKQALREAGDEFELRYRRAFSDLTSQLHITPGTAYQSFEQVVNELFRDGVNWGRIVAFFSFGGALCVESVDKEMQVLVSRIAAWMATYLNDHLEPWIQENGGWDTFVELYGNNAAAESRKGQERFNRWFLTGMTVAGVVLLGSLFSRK
SMILES,nanopore current blockade signal of BRD4-BD1 with ligand [1],current noise (IN) signal of Bcl-xL on individual treatment ([2]; FIG. 17A),change in pattern of ionic current / current blockade of Bcl-xL on addition of ligand ([2]; ligand added individually to Bcl-xL in cis compartment)
CCOc1cc(N2CCC(O)CC2)ccc1Nc1ncc2c(n1)N(C)c1ccccc1C(=O)N2C [XMD8-92],characteristic nanopore current blockade patterns were observed,–,–
CN(C)CC[C@H](CSc1ccccc1)Nc1ccc(S(=O)(=O)NC(=O)c2ccc(N3CCN(Cc4ccccc4-c4ccc(Cl)cc4)CC3)cc2)cc1[N+](=O)[O-] [ABT-737],–,specifically increased,change in pattern; also recorded: the pattern of ionic current changed significantly
